PMC12454493, “Insight on novel sulfamoylphenyl pyrazole derivatives as anticancer carbonic anhydrase inhibitors” (Molecular Diversity, 2024)
Values joined by “and” are separate entries in the source; they are usually repeats but may differ in a detail not shown here. Equal values may be shown once.

How the values were obtained:
RPMI-8226 = experiment: NCI-60 one-dose SRB screen (Leukemia); assay type: cell-based; conditions: Homo sapiens, single dose 10 µM, 48 h, read-out: Growth inhibition percent (GI %)
Experimental: (§1) The National Cancer Institute (NCI) Developmental Therapeutic Program (www.dtp.nci.nih.gov) selected the 20 novel synthesized compounds 4a-e, 5a-e, 6a-c, 9a-e, 10 and 11 to test for their anticancer activity at a single dose of 10 µM using SRB assay. […] Supplementary Data S3; Table S1 presents the detailed screening results of the most promising compounds. The preliminary screening’s detailed results for the remaining compounds are elucidated in the (Supplementary Data S3; Table S2).
(§2) The guidelines of the Drug Evaluation Branch’s protocol at the NCI in Bethesda served as the basis for the in vitro anticancer screening assays. at one dose 10 µM against a panel of 60 cancer cell lines. The human tumor cell lines used belonged to nine panels: leukemia, melanoma, lung, colon, CNS, ovarian, renal, prostate and breast cancers using the sulforhodamine B (SRB) assay in a 48 h drug exposure protocol.

CCRF-CEM = experiment: NCI-60 one-dose SRB screen (Leukemia); assay type: cell-based; conditions: Homo sapiens, single dose 10 µM, 48 h, read-out: Growth inhibition percent (GI %)
Experimental: as §1, §2

SR = experiment: NCI-60 one-dose SRB screen (Leukemia); assay type: cell-based; conditions: Homo sapiens, single dose 10 µM, 48 h, read-out: Growth inhibition percent (GI %)
Experimental: as §1, §2

HL-60(TB) = experiment: NCI-60 one-dose SRB screen (Leukemia); assay type: cell-based; conditions: Homo sapiens, single dose 10 µM, 48 h, read-out: Growth inhibition percent (GI %)
Experimental: as §1, §2

MOLT-4 = experiment: NCI-60 one-dose SRB screen (Leukemia); assay type: cell-based; conditions: Homo sapiens, single dose 10 µM, 48 h, read-out: Growth inhibition percent (GI %)
Experimental: as §1, §2

K-562 = experiment: NCI-60 one-dose SRB screen (Leukemia); assay type: cell-based; conditions: Homo sapiens, K562, single dose 10 µM, 48 h, read-out: Growth inhibition percent (GI %)
Experimental: as §1, §2

CAKI-1 = experiment: NCI-60 one-dose SRB screen (Renal Cancer); assay type: cell-based; conditions: Homo sapiens, single dose 10 µM, 48 h, read-out: Growth inhibition percent (GI %)
Experimental: as §1, §2

UO-31 = experiment: NCI-60 one-dose SRB screen (Renal Cancer); assay type: cell-based; conditions: Homo sapiens, single dose 10 µM, 48 h, read-out: Growth inhibition percent (GI %)
Experimental: as §1, §2

ACHN = experiment: NCI-60 one-dose SRB screen (Renal Cancer); assay type: cell-based; conditions: Homo sapiens, single dose 10 µM, 48 h, read-out: Growth inhibition percent (GI %)
Experimental: as §1, §2

RXF 393 = experiment: NCI-60 one-dose SRB screen (Renal Cancer); assay type: cell-based; conditions: Homo sapiens, single dose 10 µM, 48 h, read-out: Growth inhibition percent (GI %)
Experimental: as §1, §2

TK-10 = experiment: NCI-60 one-dose SRB screen (Renal Cancer); assay type: cell-based; conditions: Homo sapiens, single dose 10 µM, 48 h, read-out: Growth inhibition percent (GI %)
Experimental: as §1, §2

A498 = experiment: NCI-60 one-dose SRB screen (Renal Cancer); assay type: cell-based; conditions: Homo sapiens, single dose 10 µM, 48 h, read-out: Growth inhibition percent (GI %)
Experimental: as §1, §2

786-0 = experiment: NCI-60 one-dose SRB screen (Renal Cancer); assay type: cell-based; conditions: Homo sapiens, single dose 10 µM, 48 h, read-out: Growth inhibition percent (GI %)
Experimental: as §1, §2

SN12C = experiment: NCI-60 one-dose SRB screen (Renal Cancer); assay type: cell-based; conditions: Homo sapiens, single dose 10 µM, 48 h, read-out: Growth inhibition percent (GI %)
Experimental: as §1, §2

OVCAR-8 = experiment: NCI-60 one-dose SRB screen (Ovarian cancer); assay type: cell-based; conditions: Homo sapiens, single dose 10 µM, 48 h, read-out: Growth inhibition percent (GI %)
Experimental: as §1, §2

NCI/ADR-RES = experiment: NCI-60 one-dose SRB screen (Ovarian cancer); assay type: cell-based; conditions: Homo sapiens, single dose 10 µM, 48 h, read-out: Growth inhibition percent (GI %)
Experimental: as §1, §2

OVCAR-4 = experiment: NCI-60 one-dose SRB screen (Ovarian cancer); assay type: cell-based; conditions: Homo sapiens, single dose 10 µM, 48 h, read-out: Growth inhibition percent (GI %)
Experimental: as §1, §2

OVCAR-3 = experiment: NCI-60 one-dose SRB screen (Ovarian cancer); assay type: cell-based; conditions: Homo sapiens, single dose 10 µM, 48 h, read-out: Growth inhibition percent (GI %)
Experimental: as §1, §2

IGROV1 = experiment: NCI-60 one-dose SRB screen (Ovarian cancer); assay type: cell-based; conditions: Homo sapiens, IGROV-1, single dose 10 µM, 48 h, read-out: Growth inhibition percent (GI %)
Experimental: as §1, §2

T-47D = experiment: NCI-60 one-dose SRB screen (Breast Cancer); assay type: cell-based; conditions: Homo sapiens, T47D, single dose 10 µM, 48 h, read-out: Growth inhibition percent (GI %)
Experimental: as §1, §2

HS 578T = experiment: NCI-60 one-dose SRB screen (Breast Cancer); assay type: cell-based; conditions: Homo sapiens, single dose 10 µM, 48 h, read-out: Growth inhibition percent (GI %)
Experimental: as §1, §2

MDA-MB-468 = experiment: NCI-60 one-dose SRB screen (Breast Cancer); assay type: cell-based; conditions: Homo sapiens, single dose 10 µM, 48 h, read-out: Growth inhibition percent (GI %)
Experimental: as §1, §2

BT-549 = experiment: NCI-60 one-dose SRB screen (Breast Cancer); assay type: cell-based; conditions: Homo sapiens, single dose 10 µM, 48 h, read-out: Growth inhibition percent (GI %)
Experimental: as §1, §2

MDA-MB-231/ATCC = experiment: NCI-60 one-dose SRB screen (Breast Cancer); assay type: cell-based; conditions: Homo sapiens, single dose 10 µM, 48 h, read-out: Growth inhibition percent (GI %)
Experimental: as §1, §2

MCF-7 = experiment: NCI-60 one-dose SRB screen (Breast Cancer); assay type: cell-based; conditions: Homo sapiens, MCF7, single dose 10 µM, 48 h, read-out: Growth inhibition percent (GI %)
Experimental: as §1, §2

LOX IMVI = experiment: NCI-60 one-dose SRB screen (Melanoma); assay type: cell-based; conditions: Homo sapiens, single dose 10 µM, 48 h, read-out: Growth inhibition percent (GI %)
Experimental: as §1, §2

MALME-3M = experiment: NCI-60 one-dose SRB screen (Melanoma); assay type: cell-based; conditions: Homo sapiens, single dose 10 µM, 48 h, read-out: Growth inhibition percent (GI %)
Experimental: as §1, §2

SK-MEL-5 = experiment: NCI-60 one-dose SRB screen (Melanoma); assay type: cell-based; conditions: Homo sapiens, single dose 10 µM, 48 h, read-out: Growth inhibition percent (GI %)
Experimental: as §1, §2

SK-MEL-2 = experiment: NCI-60 one-dose SRB screen (Melanoma); assay type: cell-based; conditions: Homo sapiens, single dose 10 µM, 48 h, read-out: Growth inhibition percent (GI %)
Experimental: as §1, §2

MDA-MB-435 = experiment: NCI-60 one-dose SRB screen (Melanoma); assay type: cell-based; conditions: Homo sapiens, single dose 10 µM, 48 h, read-out: Growth inhibition percent (GI %)
Experimental: as §1, §2

UACC-62 = experiment: NCI-60 one-dose SRB screen (Melanoma); assay type: cell-based; conditions: Homo sapiens, single dose 10 µM, 48 h, read-out: Growth inhibition percent (GI %)
Experimental: as §1, §2

UACC-257 = experiment: NCI-60 one-dose SRB screen (Melanoma); assay type: cell-based; conditions: Homo sapiens, single dose 10 µM, 48 h, read-out: Growth inhibition percent (GI %)
Experimental: as §1, §2

M14 = experiment: NCI-60 one-dose SRB screen (Melanoma); assay type: cell-based; conditions: Homo sapiens, single dose 10 µM, 48 h, read-out: Growth inhibition percent (GI %)
Experimental: as §1, §2

SK-MEL-28 = experiment: NCI-60 one-dose SRB screen (Melanoma); assay type: cell-based; conditions: Homo sapiens, single dose 10 µM, 48 h, read-out: Growth inhibition percent (GI %)
Experimental: as §1, §2

hCA XII = hCA XII (Homo sapiens, UniProt O43570); experiment: CA inhibitory activity, spectrophotometric p-NPA assay; assay type: biochemical
COLO 205 = experiment: NCI-60 one-dose SRB screen (Colon Cancer); assay type: cell-based; conditions: Homo sapiens, single dose 10 µM, 48 h, read-out: Growth inhibition percent (GI %)
Experimental: as §1, §2

KM12 = experiment: NCI-60 one-dose SRB screen (Colon Cancer); assay type: cell-based; conditions: Homo sapiens, single dose 10 µM, 48 h, read-out: Growth inhibition percent (GI %)
Experimental: as §1, §2

HCT-116 = experiment: NCI-60 one-dose SRB screen (Colon Cancer); assay type: cell-based; conditions: Homo sapiens, single dose 10 µM, 48 h, read-out: Growth inhibition percent (GI %)
Experimental: as §1, §2

SW-620 = experiment: NCI-60 one-dose SRB screen (Colon Cancer); assay type: cell-based; conditions: Homo sapiens, single dose 10 µM, 48 h, read-out: Growth inhibition percent (GI %)
Experimental: as §1, §2

HT29 = experiment: NCI-60 one-dose SRB screen (Colon Cancer); assay type: cell-based; conditions: Homo sapiens, HT-29, single dose 10 µM, 48 h, read-out: Growth inhibition percent (GI %)
Experimental: as §1, §2

HCT-15 = experiment: NCI-60 one-dose SRB screen (Colon Cancer); assay type: cell-based; conditions: Homo sapiens, single dose 10 µM, 48 h, read-out: Growth inhibition percent (GI %)
Experimental: as §1, §2

HCC-2998 = experiment: NCI-60 one-dose SRB screen (Colon Cancer); assay type: cell-based; conditions: Homo sapiens, single dose 10 µM, 48 h, read-out: Growth inhibition percent (GI %)
Experimental: as §1, §2

PC-3 = experiment: NCI-60 one-dose SRB screen (Prostate Cancer); assay type: cell-based; conditions: Homo sapiens, single dose 10 µM, 48 h, read-out: Growth inhibition percent (GI %)
Experimental: as §1, §2

DU-145 = experiment: NCI-60 one-dose SRB screen (Prostate Cancer); assay type: cell-based; conditions: Homo sapiens, single dose 10 µM, 48 h, read-out: Growth inhibition percent (GI %)
Experimental: as §1, §2

Sequence of hCA XII (O43570 25-354): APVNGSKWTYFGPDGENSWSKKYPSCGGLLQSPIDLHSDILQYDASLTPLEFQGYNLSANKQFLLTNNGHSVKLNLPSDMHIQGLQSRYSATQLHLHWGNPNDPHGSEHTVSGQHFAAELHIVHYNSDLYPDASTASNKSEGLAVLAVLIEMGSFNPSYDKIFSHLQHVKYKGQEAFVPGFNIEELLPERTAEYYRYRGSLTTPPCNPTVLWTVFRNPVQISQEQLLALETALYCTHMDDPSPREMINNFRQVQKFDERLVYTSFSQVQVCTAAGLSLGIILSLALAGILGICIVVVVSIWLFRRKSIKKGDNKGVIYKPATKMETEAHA

## CCOC(=O)c1ccc(NC(=O)COC(=O)c2cn(-c3ccc(S(N)(=O)=O)cc3)nc2-c2ccc(C)cc2)cc1 [Compound 5b, 2-[(4-(Ethoxycarbonyl)phenyl)amino]-2-oxoethyl 1-(4-sulfamoylphenyl)-3-(p-tolyl)-1H-pyrazole-4-carboxylate]
RPMI-8226
  inhibition at 10 µM: 64.1%
CCRF-CEM
  inhibition at 10 µM: 75.4%
SR
  inhibition at 10 µM: 73.4%
HL-60(TB)
  inhibition at 10 µM: 70.2%
MOLT-4
  inhibition at 10 µM: 83.8%
K-562
  inhibition at 10 µM: 74.5%
CAKI-1
  inhibition at 10 µM: 70.2%
UO-31
  inhibition at 10 µM: 58.8%
ACHN
  inhibition at 10 µM: 52.8%
RXF 393
  inhibition at 10 µM: 73.2%
TK-10
  inhibition at 10 µM: 14%
A498
  inhibition at 10 µM: 31.7%
786-0
  inhibition at 10 µM: 66%
SN12C
  inhibition at 10 µM: 38.2%
OVCAR-8
  inhibition at 10 µM: 12.8%
NCI/ADR-RES
  inhibition at 10 µM: 22.3%
OVCAR-4
  inhibition at 10 µM: 58.8%
OVCAR-3
  inhibition at 10 µM: 53.5%
IGROV1
  inhibition at 10 µM: 21.4%
T-47D
  inhibition at 10 µM: 53.5%
HS 578T
  inhibition at 10 µM: 57.9%
MDA-MB-468
  inhibition at 10 µM: 52.5%
BT-549
  inhibition at 10 µM: 39.7%
MDA-MB-231/ATCC
  inhibition at 10 µM: 27.8%
MCF-7
  inhibition at 10 µM: 78.6%
LOX IMVI
  inhibition at 10 µM: 53.6%
MALME-3M
  inhibition at 10 µM: 35.5%
SK-MEL-5
  inhibition at 10 µM: 39.3%
SK-MEL-2
  inhibition at 10 µM: 27.9%
MDA-MB-435
  inhibition at 10 µM: 47.3%
UACC-62
  inhibition at 10 µM: 53.4%
UACC-257
  inhibition at 10 µM: 39.1%
M14
  inhibition at 10 µM: 56.9%
SK-MEL-28
  inhibition at 10 µM: 48.2%
hCA XII
  Ki: 106 nM
hCA XII; p-NPA substrate, pH 7.5, 25 °C, triplicate, read-out: IC50 (µM) ± SD hCA XII
  IC50: 0.1 µM and 0.106 µM
COLO 205
  inhibition at 10 µM: 42.3%
KM12
  inhibition at 10 µM: 70.3%
HCT-116
  inhibition at 10 µM: 60.7%
SW-620
  inhibition at 10 µM: 37%
HT29
  inhibition at 10 µM: 64.4%
HCT-15
  inhibition at 10 µM: 65.7%
HCC-2998
  inhibition at 10 µM: 47%
PC-3
  inhibition at 10 µM: 68.7%
DU-145
  inhibition at 10 µM: 28.9%
